ChEMBL document CHEMBL4011590, “Structure-activity relationship studies on 3,5-dinitrophenyl tetrazoles as antitubercular agents” (Eur J Med Chem, 2017)
Values after ≈ are worked out from the molar mass of the structure shown.

What was measured:
[1] = test system: Mycobacterium tuberculosis; assay: Antimycobacterial activity against Mycobacterium tuberculosis H37Rv CNCTC My 331/88 after 14 days by micromethod; type: functional; settings: H37Rv CNCTC My 331/88, 336 h
[2] = test system: Mycobacterium tuberculosis; assay: Antimycobacterial activity against Mycobacterium tuberculosis H37Rv CNCTC My 331/88 after 21 days by micromethod; type: functional; settings: H37Rv CNCTC My 331/88, 504 h
Mycobacterium avium [3] = assay: Antimycobacterial activity against Mycobacterium avium CNCTC My 330/80 after 14 days by micromethod; type: functional; settings: CNCTC My 330/80, 336 h
Mycobacterium avium [4] = assay: Antimycobacterial activity against Mycobacterium avium CNCTC My 330/80 after 21 days by micromethod; type: functional; settings: CNCTC My 330/80, 504 h
Mycobacterium kansasii [5] = assay: Antimycobacterial activity against Mycobacterium kansasii CNCTC My 235/80 after 7 days by micromethod; type: functional; settings: CNCTC My 235/80, 168 h
Mycobacterium kansasii [6] = assay: Antimycobacterial activity against Mycobacterium kansasii CNCTC My 235/80 after 14 days by micromethod; type: functional; settings: CNCTC My 235/80, 336 h
Mycobacterium kansasii [7] = assay: Antimycobacterial activity against Mycobacterium kansasii CNCTC My 235/80 after 21 days by micromethod; type: functional; settings: CNCTC My 235/80, 504 h
Mycobacterium kansasii [8] = assay: Antimycobacterial activity against Mycobacterium kansasii isolate 6509/96 after 7 days by micromethod; type: functional; settings: isolate 6509/96, 168 h
Mycobacterium kansasii [9] = assay: Antimycobacterial activity against Mycobacterium kansasii isolate 6509/96 after 14 days by micromethod; type: functional; settings: isolate 6509/96, 336 h
Mycobacterium kansasii [10] = assay: Antimycobacterial activity against Mycobacterium kansasii isolate 6509/96 after 21 days by micromethod; type: functional; settings: isolate 6509/96, 504 h
CHO-K1 = assay: Cytotoxicity against CHOK1 cells after 24 hrs by MTT assay; type: cell-based; settings: Cricetulus griseus, CHO-K1, 24 h

`O=[N+]([O-])c1cc(-c2nnn(Cc3cc(F)cc(F)c3)n2)cc([N+](=O)[O-])c1` showed an MIC99 [1] of 0.25 µM (≈ 0.0906 µg/mL), an MIC99 [2] of 5 µM (≈ 1.81 µg/mL) and an MIC99 (Mycobacterium avium [3]) of 8 µM (≈ 2.9 µg/mL). For the same molecule, the MIC99 (Mycobacterium avium [4]) was 16 µM (≈ 5.8 µg/mL), the MIC99 (Mycobacterium kansasii [5]) was 1 µM (≈ 0.362 µg/mL) and the MIC99 (Mycobacterium kansasii [6]) was 2 µM (≈ 0.725 µg/mL). For the same molecule, the MIC99 (Mycobacterium kansasii [7]) was 4 µM (≈ 1.45 µg/mL), the MIC99 (Mycobacterium kansasii [8]) was 1 µM (≈ 0.362 µg/mL) and the MIC99 (Mycobacterium kansasii [9]) was 2 µM (≈ 0.725 µg/mL). For the same molecule, the MIC99 (Mycobacterium kansasii [10]) was 4 µM (≈ 1.45 µg/mL).
Work on `CCCCCCCCCCCCCCCCn1nnnc1SCn1nnc(-c2cc([N+](=O)[O-])cc([N+](=O)[O-])c2)n1` yielded an MIC99 [1] of 4 µM (≈ 2.3 µg/mL), an MIC99 [2] of 8 µM (≈ 4.6 µg/mL) and an MIC99 (Mycobacterium avium [3]) of 125 µM (≈ 71.8 µg/mL). For the same molecule, the MIC99 (Mycobacterium avium [4]) was 250 µM (≈ 144 µg/mL), the MIC99 (Mycobacterium kansasii [5]) was 16 µM (≈ 9.2 µg/mL) and the MIC99 (Mycobacterium kansasii [6]) was 32 µM (≈ 18.4 µg/mL). It also gave an MIC99 (Mycobacterium kansasii [7]) of 32 µM (≈ 18.4 µg/mL), an MIC99 (Mycobacterium kansasii [8]) of 8 µM (≈ 4.6 µg/mL) and an MIC99 (Mycobacterium kansasii [9]) of 16 µM (≈ 9.2 µg/mL). The MIC99 (Mycobacterium kansasii [10]) was 32 µM (≈ 18.4 µg/mL).
`NNC(=O)c1ccncc1` [ISONIAZID] showed an MIC99 (Mycobacterium avium [3]) greater than 250 µM, an MIC99 (Mycobacterium kansasii [6]) greater than 250 µM and an MIC99 (Mycobacterium kansasii [8]) of 4 µM (≈ 0.549 µg/mL). The MIC99 (Mycobacterium kansasii [9]) was 4 µM (≈ 0.549 µg/mL) and the MIC99 (Mycobacterium kansasii [10]) was 4 µM (≈ 0.549 µg/mL).
`O=[N+]([O-])c1cc(Sc2nnnn2-c2ccccc2)cc([N+](=O)[O-])c1` showed an MIC99 [1] of 2 µM (≈ 0.689 µg/mL), an MIC99 [2] of 4 µM (≈ 1.38 µg/mL) and an MIC99 (Mycobacterium avium [3]) of 16 µM (≈ 5.51 µg/mL). It also gave an MIC99 (Mycobacterium avium [4]) of 16 µM (≈ 5.51 µg/mL), an MIC99 (Mycobacterium kansasii [5]) of 8 µM (≈ 2.75 µg/mL) and an MIC99 (Mycobacterium kansasii [6]) of 8 µM (≈ 2.75 µg/mL). For the same molecule, the MIC99 (Mycobacterium kansasii [7]) was 16 µM (≈ 5.51 µg/mL), the MIC99 (Mycobacterium kansasii [8]) was 4 µM (≈ 1.38 µg/mL) and the MIC99 (Mycobacterium kansasii [9]) was 8 µM (≈ 2.75 µg/mL). It also gave an MIC99 (Mycobacterium kansasii [10]) of 8 µM (≈ 2.75 µg/mL).
Work on `O=[N+]([O-])c1cc(-c2nnnn2Cc2ccc(Cl)cc2)cc([N+](=O)[O-])c1` yielded an MIC99 [1] of 4 µM (≈ 1.44 µg/mL), an MIC99 [2] of 4 µM (≈ 1.44 µg/mL) and an MIC99 (Mycobacterium avium [3]) of 16 µM (≈ 5.77 µg/mL). For the same molecule, the MIC99 (Mycobacterium avium [4]) was 16 µM (≈ 5.77 µg/mL), the MIC99 (Mycobacterium kansasii [5]) was 8 µM (≈ 2.89 µg/mL) and the MIC99 (Mycobacterium kansasii [6]) was 16 µM (≈ 5.77 µg/mL). It also gave an MIC99 (Mycobacterium kansasii [7]) of 16 µM (≈ 5.77 µg/mL), an MIC99 (Mycobacterium kansasii [8]) of 4 µM (≈ 1.44 µg/mL) and an MIC99 (Mycobacterium kansasii [9]) of 8 µM (≈ 2.89 µg/mL). The MIC99 (Mycobacterium kansasii [10]) was 8 µM (≈ 2.89 µg/mL).
`O=[N+]([O-])c1cc(-c2nnn(Cc3ccc(F)c(F)c3)n2)cc([N+](=O)[O-])c1` was tested, and the MIC99 [1] was 0.25 µM (≈ 0.0906 µg/mL), the MIC99 [2] was 0.5 µM (≈ 0.181 µg/mL) and the MIC99 (Mycobacterium avium [3]) was 4 µM (≈ 1.45 µg/mL). The MIC99 (Mycobacterium avium [4]) was 8 µM (≈ 2.9 µg/mL), the MIC99 (Mycobacterium kansasii [5]) was 1 µM (≈ 0.362 µg/mL) and the MIC99 (Mycobacterium kansasii [6]) was 2 µM (≈ 0.725 µg/mL). For the same molecule, the MIC99 (Mycobacterium kansasii [7]) was 4 µM (≈ 1.45 µg/mL), the MIC99 (Mycobacterium kansasii [8]) was 1 µM (≈ 0.362 µg/mL) and the MIC99 (Mycobacterium kansasii [9]) was 2 µM (≈ 0.725 µg/mL). For the same molecule, the MIC99 (Mycobacterium kansasii [10]) was 2 µM (≈ 0.725 µg/mL).
`CCCn1nnc(-c2cc([N+](=O)[O-])cc([N+](=O)[O-])c2)n1` gave an MIC99 [1] of 8 µM (≈ 2.23 µg/mL), an MIC99 [2] of 16 µM (≈ 4.45 µg/mL) and an MIC99 (Mycobacterium avium [3]) of 32 µM (≈ 8.9 µg/mL). For the same molecule, the MIC99 (Mycobacterium avium [4]) was 62.5 µM (≈ 17.4 µg/mL), the MIC99 (Mycobacterium kansasii [5]) was 16 µM (≈ 4.45 µg/mL) and the MIC99 (Mycobacterium kansasii [6]) was 32 µM (≈ 8.9 µg/mL). The MIC99 (Mycobacterium kansasii [7]) was 32 µM (≈ 8.9 µg/mL), the MIC99 (Mycobacterium kansasii [8]) was 16 µM (≈ 4.45 µg/mL) and the MIC99 (Mycobacterium kansasii [9]) was 32 µM (≈ 8.9 µg/mL). The MIC99 (Mycobacterium kansasii [10]) was 32 µM (≈ 8.9 µg/mL).
`CO[C@H]1/C=C/O[C@@]2(C)Oc3c(C)c(O)c4c(O)c(c(/C=N/N5CCN(C)CC5)c(O)c4c3C2=O)NC(=O)/C(C)=C\C=C\[C@H](C)[C@H](O)[C@@H](C)[C@@H](O)[C@@H](C)[C@H](OC(C)=O)[C@@H]1C` [RIFAMPIN] showed an MIC99 [1] of 0.25 µM (≈ 0.206 µg/mL), an MIC99 (Mycobacterium avium [3]) of 32 µM (≈ 26.3 µg/mL) and an MIC99 (Mycobacterium kansasii [6]) of 0.25 µM (≈ 0.206 µg/mL). It also gave an MIC99 (Mycobacterium kansasii [9]) of 0.125 µM (≈ 0.103 µg/mL).
`O=[N+]([O-])c1cc(-c2nnn(CCSc3nnnn3-c3ccc(Br)cc3)n2)cc([N+](=O)[O-])c1` showed an MIC99 [1] of 0.5 µM (≈ 0.26 µg/mL), an MIC99 [2] of 0.5 µM (≈ 0.26 µg/mL) and an MIC99 (Mycobacterium avium [3]) of 2 µM (≈ 1.04 µg/mL). For the same molecule, the MIC99 (Mycobacterium avium [4]) was 2 µM (≈ 1.04 µg/mL), the MIC99 (Mycobacterium kansasii [5]) was 0.5 µM (≈ 0.26 µg/mL) and the MIC99 (Mycobacterium kansasii [6]) was 1 µM (≈ 0.519 µg/mL). For the same molecule, the MIC99 (Mycobacterium kansasii [7]) was 1 µM (≈ 0.519 µg/mL), the MIC99 (Mycobacterium kansasii [8]) was 1 µM (≈ 0.519 µg/mL) and the MIC99 (Mycobacterium kansasii [9]) was 1 µM (≈ 0.519 µg/mL). The MIC99 (Mycobacterium kansasii [10]) was 1 µM (≈ 0.519 µg/mL).
`O=[N+]([O-])c1cc(-c2nnn(CCCCSc3nnnn3-c3ccc(Cl)c(Cl)c3)n2)cc([N+](=O)[O-])c1` was tested, and the MIC99 [1] was 0.25 µM (≈ 0.134 µg/mL), the MIC99 [2] was 0.25 µM (≈ 0.134 µg/mL) and the MIC99 (Mycobacterium avium [3]) was 2 µM (≈ 1.07 µg/mL). For the same molecule, the MIC99 (Mycobacterium avium [4]) was 4 µM (≈ 2.15 µg/mL), the MIC99 (Mycobacterium kansasii [5]) was 0.5 µM (≈ 0.269 µg/mL) and the MIC99 (Mycobacterium kansasii [6]) was 1 µM (≈ 0.537 µg/mL). The MIC99 (Mycobacterium kansasii [7]) was 1 µM (≈ 0.537 µg/mL), the MIC99 (Mycobacterium kansasii [8]) was 0.5 µM (≈ 0.269 µg/mL) and the MIC99 (Mycobacterium kansasii [9]) was 1 µM (≈ 0.537 µg/mL). The MIC99 (Mycobacterium kansasii [10]) was 1 µM (≈ 0.537 µg/mL).
With `O=[N+]([O-])c1cc(-c2nnn(Cc3cccc(F)c3)n2)cc([N+](=O)[O-])c1` the MIC99 [1] was 1 µM (≈ 0.344 µg/mL), the MIC99 [2] was 1 µM (≈ 0.344 µg/mL) and the MIC99 (Mycobacterium avium [3]) was 8 µM (≈ 2.75 µg/mL). It also gave an MIC99 (Mycobacterium avium [4]) of 16 µM (≈ 5.51 µg/mL), an MIC99 (Mycobacterium kansasii [5]) of 1 µM (≈ 0.344 µg/mL) and an MIC99 (Mycobacterium kansasii [6]) of 2 µM (≈ 0.689 µg/mL). For the same molecule, the MIC99 (Mycobacterium kansasii [7]) was 2 µM (≈ 0.689 µg/mL), the MIC99 (Mycobacterium kansasii [8]) was 0.5 µM (≈ 0.172 µg/mL) and the MIC99 (Mycobacterium kansasii [9]) was 1 µM (≈ 0.344 µg/mL). It also gave an MIC99 (Mycobacterium kansasii [10]) of 2 µM (≈ 0.689 µg/mL) and an IC50 (CHO-K1) of 315 µM.
With `O=[N+]([O-])c1cc(-c2nnn(Cc3c(F)cccc3Cl)n2)cc([N+](=O)[O-])c1` the MIC99 [1] was 0.5 µM (≈ 0.189 µg/mL), the MIC99 [2] was 0.5 µM (≈ 0.189 µg/mL) and the MIC99 (Mycobacterium avium [3]) was 4 µM (≈ 1.51 µg/mL). The MIC99 (Mycobacterium avium [4]) was 8 µM (≈ 3.03 µg/mL), the MIC99 (Mycobacterium kansasii [5]) was 0.5 µM (≈ 0.189 µg/mL) and the MIC99 (Mycobacterium kansasii [6]) was 1 µM (≈ 0.379 µg/mL). For the same molecule, the MIC99 (Mycobacterium kansasii [7]) was 1 µM (≈ 0.379 µg/mL), the MIC99 (Mycobacterium kansasii [8]) was 0.5 µM (≈ 0.189 µg/mL) and the MIC99 (Mycobacterium kansasii [9]) was 1 µM (≈ 0.379 µg/mL). For the same molecule, the MIC99 (Mycobacterium kansasii [10]) was 1 µM (≈ 0.379 µg/mL).
Molecule `O=[N+]([O-])c1cc(-c2nnn(CSc3nnnn3-c3ccc(Br)cc3)n2)cc([N+](=O)[O-])c1` has an MIC99 [1] of 0.03 µM (≈ 0.0152 µg/mL), an MIC99 [2] of 0.03 µM (≈ 0.0152 µg/mL) and an MIC99 (Mycobacterium kansasii [5]) of 0.125 µM (≈ 0.0632 µg/mL). For the same molecule, the MIC99 (Mycobacterium kansasii [6]) was 0.25 µM (≈ 0.126 µg/mL), the MIC99 (Mycobacterium kansasii [7]) was 0.5 µM (≈ 0.253 µg/mL) and the MIC99 (Mycobacterium kansasii [8]) was 0.06 µM (≈ 0.0303 µg/mL). It also gave an MIC99 (Mycobacterium kansasii [9]) of 0.125 µM (≈ 0.0632 µg/mL), an MIC99 (Mycobacterium kansasii [10]) of 0.25 µM (≈ 0.126 µg/mL) and an IC50 (CHO-K1) of 29 µM.
